Source: US8420592B2, “Methods of treatment using single doses of oritavancin” (The Medicines Company, priority 2008, dated 2013)
Values after ≈ are worked out from the molar mass of the structure shown.

Experiments:
[1] = test system: S. aureus; test: MIC by broth microdilution with 0.002% polysorbate-80, baseline isolates of MITT population; type: cell-based; conditions: Staphylococcus aureus; all S. aureus
Protocol: Blood and infection site cultures were obtained within three days of enrollment (often done at the time of enrollment). End-of-therapy, TOC, and late follow-up (or at early relapse) cultures were obtained from the infection site if clinically indicated. […] Specimens were cultured and pathogens were identified at each investigative site's certified laboratory. All isolated gram-positive pathogen(s) that were obtained from the infection site at baseline/randomization and up to and including the TOC time point were subcultured and sent to a central laboratory (Covance Clinical Laboratories, Indianapolis, Ind.) for confirmatory identification and susceptibility testing. In cases of discrepancy between the local and the central laboratory, central laboratory results were used.
At least one gram-positive organism was isolated from the infection site at baseline in 209 patients (69.2%) in the ITT population. The most commonly isolated pathogen was S. aureus, which was isolated from 87.6% (183/209) of MITT patients. MRSA was isolated in 49% (103/209) of MITT patients. The other three most common pathogens identified in the MITT population were Streptococcus pyogenes (5.7%, 12/209), Streptococcus agalactiae (3.8%, 8/209) and Enterococcus faecalis (3.8%, 8/209). The range of oritavancin minimum inhibitory concentrations (MICs) for S. aureus in the MITT population, as assessed using broth microdilution with 0.002% polysorbate-80, was 0.008 to 0.5 μg/mL.

[2] = Phase 2 cSSSI study: safety and tolerability; type: in vivo, human
Protocol: A phase 2, multi-center, randomized, double-blind, parallel, active-comparator study in which three dose regimens of oritavancin were explored as a treatment for cSSSI due to gram-positive pathogens was conducted using: a daily dose (200 mg) administered for three to seven days, a single dose (1200 mg), and an infrequent dose (800 mg dose with option for an additional 400 mg on Day 5).
Patients were randomized through an interactive voice response system in a 1:1:1 ratio to receive either 1) oritavancin […] daily dose: 200 mg IV daily for 3 to 7 days as determined by the investigator based on clinical criteria, 2) oritavancin single dose: 1200 mg oritavancin IV on Day 1, or; 3) oritavancin infrequent dose: 800 mg IV on Day 1 with optional 400 mg IV on Day 5 as determined by investigator based on clinical criteria. During randomization patients were stratified by disease categories of wound infection, major abscess, and cellulitis. Placebo IV (5% dextrose in water) was given to maintain the blind.
Analyses were performed on four patient populations: intent-to-treat (ITT), modified intent-to-treat (MITT), clinically evaluable (CE) and microbiologically evaluable (ME). The ITT population included patients who were randomized to treatment and received any amount of study medication. Two patients who were potentially unblinded were excluded from the ITT population for all efficacy analyses. The MITT population included all ITT patients with a gram-positive pathogen isolated at baseline.

[3] = test system: MSSA (S. aureus ATCC13709 and clinical MSSA strains); test: Neutropenic-mouse thigh infection model; type: in vivo, Staphylococcus aureus; conditions: for Log kill / Mean Log CFU/thigh from baseline: 72 h; for Log kill: S. aureus ATCC13709; for Mean Log CFU/thigh from baseline: MSSA (3 strains)
Protocol: (§1) Methods: Thigh infection was established for 14 clinical SA isolates (3 MSSA and 11 MRSA; MICs 0.0015 to 2 μg/mL) in neutropenic CD-1 mice (n=3/group) with 5×10^5 colony forming units (CFU) of cells. Single intravenous doses of ORI (0.5 to 40 mg/kg) were tested against one MSSA and one MRSA strain. […] Both thighs were harvested and CFU counts were evaluated after 24 h (single doses) or 72 h (HEQ doses) treatment.
(§2) In vivo studies: All studies were performed in accordance with protocols that were approved by the Institutional Animal Care and Use Committee. Thigh infection was established for 14 clinical S. aureus isolates in neutropenic CD-1 mice (19-21 g, n=3/group) with 5×10^5 colony forming units (CFU) of cells in both thighs. In the single dose-response study, the number of bacteria/thigh was monitored 24 h post-infection (PI). In the human equivalent (HEQ) dose-ranging study, the bacterial titer was determined in mouse thighs at 2, 4, 8, 12, 24, 48 and 72 h PI. Thighs were serially diluted and plated on Baird-Parker agar plates to determine the bacterial titer. The limit of detection was 1.69 Log10 CFU/thigh. Bacterial titer decreases were calculated (compared to starting inoculum) in thighs at 72 h PI for each HEQ dose regimen of ORI.
(§3) Antibiotherapy: 1) In the single dose response study, mice were treated intravenously (IV) with ORI at doses ranging from 0.4 to 40 mg/kg at lh PI. 2) In the HEQ dose-ranging study, starting at 1 h PI, the mice received a multiple IV dose regimen to simulate human drug concentration profile. […]
(§4) Data analysis: The inhibitiory sigmoid Emax model was used to calculate the ED50 of oritavancin (dose resulting in 50% of the maximal bacterial killing) ±95% confidence interval by using the GraphPad Prism software. The statistical calculations to compare bacterial titer from each experimental group were performed according to the Mann-Whitney U test by using StatsDirect software. p-values below 0.05 were considered significant.

[4] = test system: MRSA (S. aureus NRS123 and clinical MRSA strains); test: Neutropenic-mouse thigh infection model; type: in vivo, Staphylococcus aureus; conditions: for Mean Log CFU/thigh from baseline: 72 h
Protocol: as §1, §2, §3, §4

For `CN[C@H](CC(C)C)C(=O)N[C@H]1C(=O)N[C@@H](CC(N)=O)C(=O)N[C@H]2C(=O)N[C@H]3C(=O)N[C@H](C(=O)N[C@H](C(=O)O)c4cc(O)cc(O)c4-c4cc3ccc4O)[C@H](O[C@H]3C[C@](C)(N)[C@@H](O)[C@H](C)O3)c3ccc(c(Cl)c3)Oc3cc2cc(c3O[C@@H]2O[C@H](CO)[C@@H](O)[C@H](O)[C@H]2O[C@H]2C[C@](C)(NCc3ccc(-c4ccc(Cl)cc4)cc3)[C@@H](O)[C@H](C)O2)Oc2ccc(cc2Cl)[C@H]1O` [Oritavancin, N-(4-(4-chlorophenyl)benzyl)A82846B], the MIC90 [1] was 0.12 µg/mL (≈ 0.0669 µM), the “Patients with a serious adverse event” value ([2]; all groups (25 patients)) was 8.3% and the “Early discontinuation of study medication for lack of efficacy” value ([2]; all three treatment groups together (10/302)) was 3.3%. The “Adverse events being mild” value ([2]; daily dose group) was 51.8%, the “Adverse events considered mild or moderate in intensity” value ([2]; daily dose group) was 85.7% and the “Incidence of serious adverse events” value ([2]; daily dose group) was 11%. The “Patients who discontinued study medication due to an adverse event” value ([2]; daily dose group) was 3.0%, the “Patients with phlebitis assessed as related to study medication” value (shortened to “Patients with phlebitis assessed”) ([2]; daily dose group) was 3.0% and the “Patients who died during the study (n/total)” value ([2]; daily dose group, none related to study medication) was 3/100. For the same compound, the “Adverse events being mild” value ([2]; infrequent dose group) was 60.3%, the “Adverse events considered mild or moderate in intensity” value ([2]; infrequent dose group) was 95.2% and the “Incidence of serious adverse events” value ([2]; infrequent dose group) was 6.8%. For the same compound, the “Patients who discontinued study medication due to an adverse event” value ([2]; infrequent dose group) was 1.0%, the “Patients with phlebitis assessed” value ([2]; infrequent dose group) was 8.7% and the “Patients with related phlebitis” value ([2]; infrequent dose group, 800 mg only) was 11.8%. The “Patients with related phlebitis” value ([2]; infrequent dose group, 800 mg plus the 400 mg dose) was 7.2%, the “Patients who died during the study (n/total)” value ([2]; infrequent dose group, none related to study medication) was 2/103 and the “Adverse events being mild” value ([2]; single dose group) was 58.2%. The “Adverse events considered mild or moderate in intensity” value ([2]; single dose group) was 94.5%, the “Incidence of serious adverse events” value ([2]; single dose group) was 7.1% and the “Patients who died during the study (n/total)” value ([2]; single dose group) was 0/99. For the same compound, the “Patients who discontinued study medication due to an adverse event” value ([2]; single dose group) was 3.0%, the “Patients with phlebitis assessed” value ([2]; single dose group) was 4.0% and the “Serious adverse event investigator-assessed as related to study medication” value ([2]; single dose group (dyspnoea; hypersensitivity)) was “Two”. For the same compound, the “Blood creatine phosphokinase (CPK) increase” value ([2]; single dose group compared to the daily and infrequent dose groups) was “higher incidence”, the Log kill ([3]; HEQ dose 200 mg) was > 2 Log and the Log kill ([3]; HEQ dose 400 mg) was > 2 Log. The Log kill ([3]; HEQ dose 1200 mg) was > 2 Log, the “Mean Log CFU/thigh from baseline” value ([3]; HEQ dose 100 mg × 3 days) was 1.5 Log CFU/thigh and the “Mean Log CFU/thigh from baseline” value ([3]; HEQ dose 200 mg × 3 days) was −0.1 Log CFU/thigh. For the same compound, the “Mean Log CFU/thigh from baseline” value ([3]; HEQ dose 400 mg × 3 days) was −1.6 Log CFU/thigh, the “Mean Log CFU/thigh from baseline” value ([3]; HEQ dose 1200 mg × 1 day) was −2.7 Log CFU/thigh and the ED50 ([3]; Staphylococcus aureus, single IV dose 1 h post-infection, 24 h readout, S. aureus ATCC13709 (MSSA), neutropenic CD-1 mice, 95% CI in brackets, read-out: ED50 (dose resulting in 50% of the maximal killing)) was 5.8 mg/kg. The “ED50 (dose resulting in 50% of the maximal killing)” value ([3]; single IV dose 1 h post-infection, 24 h readout, S. aureus ATCC13709 (MSSA), neutropenic CD-1 mice, 95% CI in brackets) was 5.8 (3.3-10) mg/kg, the “Mean Log CFU/thigh from baseline” value ([4]; MRSA (3 strains), HEQ dose 100 mg × 3 days) was 0.8 Log CFU/thigh and the “Mean Log CFU/thigh from baseline” value ([4]; MRSA (3 strains), HEQ dose 400 mg × 3 days) was −2.8 Log CFU/thigh. For the same compound, the “Mean Log CFU/thigh from baseline” value ([4]; MRSA (11 strains), HEQ dose 200 mg × 3 days) was −0.9 Log CFU/thigh, the “Mean Log CFU/thigh from baseline” value ([4]; MRSA (11 strains), HEQ dose 1200 mg × 1 day) was −2.8 Log CFU/thigh and the ED50 ([4]; Staphylococcus aureus, single IV dose 1 h post-infection, 24 h readout, NRS123 (MRSA), neutropenic CD-1 mice, 95% CI in brackets, read-out: ED50 (dose resulting in 50% of the maximal killing)) was 2.4 mg/kg. For the same compound, the “ED50 (dose resulting in 50% of the maximal killing)” value ([4]; single IV dose 1 h post-infection, 24 h readout, NRS123 (MRSA), neutropenic CD-1 mice, 95% CI in brackets) was 2.4 (0.8-7.3) mg/kg.
